Measurements: US20110190269A1, “GAMMA SECRETASE MODULATORS” (priority 2010, published 2011)
Counter-ions that a name gives are not always drawn.

test system: γ-secretase; experiment: Cellular γ-secretase assay (inhibition of Aβ42 secretion); type: cell-based; conditions: human neuroglioma H4 cells overexpressing human APP, 22 hrs incubation
Protocol: Human neuroglioma H4 cells overexpressing human APP were plated at 30,000 cells/well/[…] in 96-well plates in IMDM media containing 10% FCS, […] Hygromycin B and incubated for 2 h at 37° C., 5% CO2 prior to adding test compounds.
Compounds for testing were dissolved in 100% Me2SO yielding in a 10 mM stock solution. Typically […] of these solutions were further diluted in 1000 μl of IMDM media (w/o FCS). Subsequent 1:1 dilutions gave a ten point dose response curve. 100 μl of each dilution was added to the cells in 96-well plates. Appropriate controls using vehicle only and reference compound were applied to this assay. The final concentration of Me2S0 was 0.4%.
After incubation for 22 hrs at 37° C., 5% CO2, 50 μl supernatant was transferred into round-bottom 96-well polypropylene plates for detection of Aβ42. 50 μl assay buffer (50 mM Tris/Cl, pH 7.4, 60 mM NaCl, 0.5% BSA, 1% TWEEN 20) was added to the wells followed by the addition of 100 μl of detection antibody (ruthenylated BAP15 0.0625 μg/ml in assay buffer). 50 μl of a premix of capture antibody (biotinylated 6E10 antibody, 1 μg/ml) and Steptavidin-coated magnetic beads (Dynal M-280, 0.125 mg/ml) were preincubated for 1 hr at room temperature before adding the assay plates. Assay plates were incubated on a shaker for 3 hrs at room temperature and finally read in the Bioveris M8 Analyser according to the manufacturer's instructions (Bioveris).
IC50 values for inhibition of Aβ42 secretion were calculated by nonlinear regression fit analysis using XLfit 4.0 software (IDBS).

Structure (SMILES) | EC50 [nM]
COc1cc(Nc2nc3c(-c4ccc(Cl)cc4CO)cc(C)cn3n2)ccc1-n1cnc(C)c1 [Example 92, (5-Chloro-2-(2-(3-methoxy-4-(4-methyl-1H-imidazol-1-yl)phenylamino)-6-methyl-[1,2,4]triazolo[1,5-a]pyridin-8-yl)phenyl)methanol] | 375
COc1cc(Nc2nc3nc(C(F)(F)F)cc(C(F)(F)F)n3n2)ccc1-n1cnc(C)c1 [Example 26, (5,7-Bis-trifluoromethyl-[1,2,4]triazolo[1,5-a]pyrimidin-2-yl)-[3-methoxy-4-(4-methyl-imidazol-1-yl)-phenyl]-amine] | 312
COc1cc(Nc2nc3c(C)cc(Cl)cn3n2)ccc1-n1cnc(C)c1 [Example 49, (6-Chloro-8-methyl-[1,2,4]triazolo[1,5-a]pyridin-2-yl)-[3-methoxy-4-(4-methyl-imidazol-1-yl)-phenyl]-amine] | 1350
COc1cc(Nc2nc3n(n2)C(c2ccc(Cl)cc2)CC(=O)N3)ccc1-n1cnc(C)c1 (stereo not drawn) [Example 61, 7-(4-Chloro-phenyl)-2-[3-methoxy-4-(4-methyl-imidazol-1-yl)-phenylamino]-6,7-dihydro-4H-[1,2,4]triazolo[1,5-a]pyrimidin-5-one] | 831
CCCc1cccc2nc(Nc3ccc(-n4cnc(C)c4)c(OC)c3)nn12 [Example 16, [3-Methoxy-4-(4-methyl-imidazol-1-yl)-phenyl]-(5-propyl-[1,2,4]triazolo[1,5-a]pyridin-2-yl)-amine] | 197
COc1cc(Nc2nc3nc(C)cc(C(C)(C)C)n3n2)ccc1-n1cnc(C)c1 [Example 15, (7-tert-Butyl-5-methyl-[1,2,4]triazolo[1,5-a]pyrimidin-2-yl)-[3-methoxy-4-(4-methyl-imidazol-1-yl)-phenyl]-amine acetate] | 572
COc1cc(Nc2nc3c(C4=CCN(CC#N)CC4)cc(C)cn3n2)ccc1-n1cnc(C)c1 [Example 108, 2-(4-(2-(3-Methoxy-4-(4-methyl-1H-imidazol-1-yl)phenylamino)-6-methyl-[1,2,4]triazolo[1,5-a]pyridin-8-yl)-5,6-dihydropyridin-1(2H)-yl)acetonitrile] | 488
COc1ccc2nc(Nc3ccc(-n4cnc(C)c4)c(OC)c3)nn2n1 [Example 42, [3-Methoxy-4-(4-methyl-imidazol-1-yl)-phenyl]-(6-methoxy-[1,2,4]triazolo[1,5-b]pyridazin-2-yl)-amine] | 1320
COc1cc(Nc2nc3n(n2)CCCN3c2ccc(F)c(F)c2)ccc1-n1cnc(C)c1 [Example 143, 4-(3,4-Difluorophenyl)-N-(3-methoxy-4-(4-methyl-1H-imidazol-1-yl)phenyl)-4,5,6,7-tetrahydro-[1,2,4]triazolo[1,5-a]pyrimidin-2-amine] | 185
COc1cc(Nc2nc3nc4c(c(-c5ccccc5)n3n2)CCCC4)ccc1-n1cnc(C)c1 [Example 21, [3-Methoxy-4-(4-methyl-imidazol-1-yl)-phenyl]-(9-phenyl-5,6,7,8-tetrahydro-[1,2,4]triazolo[5,1-b]quinazolin-2-yl)-amine acetate] | 201
COc1cc(Nc2nc3c(N4CCC(F)CC4)cccn3n2)ccc1-n1cnc(C)c1 [Example 139, 8-(4-fluoropiperidin-1-yl)-N-(3-methoxy-4-(4-methyl-1H-imidazol-1-yl)phenyl)-[1,2,4]triazolo[1,5-a]pyridin-2-amine] | 311

Other lines, results leading:

EC50 [nM] | Structure (SMILES)
742 | COCc1cnc(-c2ccccc2)n2nc(Nc3ccc(-n4cnc(C)c4)c(OC)c3)nc12 [Example 27, [3-Methoxy-4-(4-methyl-imidazol-1-yl)-phenyl]-(8-methoxymethyl-5-phenyl-[1,2,4]triazolo[1,5-c]pyrimidin-2-yl)-amine]
110 | COc1cc(Nc2nc3cccc(-c4ccc(F)cc4)n3n2)ccc1-c1ccnc(C)c1 [Example 54, 5-(4-Fluorophenyl)-N-(3-methoxy-4-(2-methylpyridin-4-yl)phenyl)-[1,2,4]triazolo[1,5-a]pyridin-2-amine]
475 | COc1cc(Nc2nc3c(-c4ccc(C(C)(C)O)c(F)c4)cc(C)cn3n2)ccc1-n1cnc(C)c1 [Example 90, 2-(2-Fluoro-4-(2-(3-methoxy-4-(4-methyl-1H-imidazol-1-yl)phenylamino)-6-methyl-[1,2,4]triazolo[1,5-a]pyridin-8-yl)phenyl)propan-2-ol]
68 | COc1cc(Nc2nc3nc(C)cc(-c4ccc(F)c(Cl)c4)n3n2)ccc1-n1cnc(C)c1 [Example 93, 7-(3-Chloro-4-fluorophenyl)-N-(3-methoxy-4-(4-methyl-1H-imidazol-1-yl)phenyl)-5-methyl-[1,2,4]triazolo[1,5-a]pyrimidin-2-amine]
470 | COc1cc(Nc2nc3c(-c4cccc(CN)c4)cc(C)cn3n2)ccc1-n1cnc(C)c1 [Example 97, 8-(3-(Aminomethyl)phenyl)-N-(3-methoxy-4-(4-methyl-1H-imidazol-1-yl)phenyl)-6-methyl-[1,2,4]triazolo[1,5-a]pyridin-2-amine dihydrochloride]
50 | COc1cc(Nc2nc3c(-c4ccc(Cl)cc4)cccn3n2)ccc1-n1cnc(C)c1 [Example 125, [8-(4-Chloro-phenyl)-[1,2,4]triazolo[1,5-a]pyridin-2-yl]-[3-methoxy-4-(4-methyl-imidazol-1-yl)-phenyl]-amine]
300 | COc1cc(Nc2nc3n(n2)CCN(C)C3c2ccc(F)cc2)ccc1-n1cnc(C)c1 (stereo not drawn) [Example 129, 8-(4-fluorophenyl)-N-(3-methoxy-4-(4-methyl-1H-imidazol-1-yl)phenyl)-7-methyl-5,6,7,8-tetrahydro-[1,2,4]triazolo[1,5-a]pyrazin-2-amine]
74 | COc1cc(Nc2nc3c(OC)ccc(-c4ccc(F)cc4)n3n2)ccc1-n1cnc(C)c1 [Example 22, [5-(4-Fluoro-phenyl)-8-methoxy-[1,2,4]triazolo[1,5-a]pyridin-2-yl]-[3-methoxy-4-(4-methyl-imidazol-1-yl)-phenyl]-amine]
1170 | COc1cc(Nc2nc3nccc(-c4ccncc4)n3n2)ccc1-n1cnc(C)c1 [Example 68, N-(3-Methoxy-4-(4-methyl-1H-imidazol-1-yl)phenyl)-7-(pyridin-4-yl)-[1,2,4]triazolo[1,5-a]pyrimidin-2-amine]
60 | COc1cc(Nc2nc3c(-c4ccc(F)cc4)cccn3n2)ccc1-n1cnc(C)c1 [Example 10, [8-(4-Fluoro-phenyl)-[1,2,4]triazolo[1,5-a]pyridin-2-yl]-[3-methoxy-4-(4-methyl-imidazol-1-yl)-phenyl]-amine]
32 | COc1cc(Nc2nc3c(-c4ccc(F)c(F)c4)cccn3n2)ccc1-n1cnc(C)c1 [Example 126, [8-(3,4-Difluoro-phenyl)-[1,2,4]triazolo[1,5-a]pyridin-2-yl]-[3-methoxy-4-(4-methyl-imidazol-1-yl)-phenyl]-amine]
485 | COc1cc(Nc2nc3ncc(C#N)c(-c4ccccc4F)n3n2)ccc1-n1cnc(C)c1 [Example 69, 7-(2-Fluorophenyl)-2-(3-methoxy-4-(4-methyl-1H-imidazol-1-yl)phenylamino)-[1,2,4]triazolo[1,5-a]pyrimidine-6-carbonitrile]
673 | COc1ccccc1-c1c(C#N)cnc2nc(Nc3ccc(-n4cnc(C)c4)c(OC)c3)nn12 [Example 70, 2-(3-Methoxy-4-(4-methyl-1H-imidazol-1-yl)phenylamino)-7-(2-methoxyphenyl)-[1,2,4]triazolo[1,5-a]pyrimidine-6-carbonitrile]
